Data published in patent publication US20200225244A1, “COMPOSITIONS AND METHODS FOR ASSESSING PAINFUL DEMYELINATING AND NONDEMYELINATING DISEASES” (Sanford Burnham Prebys Medical Discovery Institute, priority 2017, published 2020).

What was measured:
[1] = tested on: gelatinolytic urinary MMPs; conditions: 20 mM EDTA; urine of CCI rats, day 0, 1 and 28
Experimental: The urine samples collected at day 0 (prior to injury) and days 1 and 28 post-CCI (n=4-6/group) were equilibrated in MMP buffer, pH 7.5 and then the protein concentrations were determined using the Bradford assay and made even by sample dilution in MMP buffer, pH 7.5. Dialyzed urine samples were analyzed by gelatin zymography. […] The urine samples collected at day 0 (CTR) and 28 post-CCI (CCI) (n=4-5/group) were equilibrated in MMP buffer, pH 7.5, and then the protein concentrations were determined using the Bradford assay. Dialyzed urine samples were co-incubated with the fluorescent Mca-PLGL-Dpa-AR-NH2 MMP substrate in the presence and the absence of GM6001, a broad-spectrum hydroxamate MMP inhibitor.
The dialyzed rat urine samples equilibrated in MMP buffer, pH 7.5, the crude nerve extracts and the MMP-9 samples isolated from sciatic nerve were analyzed by gelatin zymography in a 10% acrylamide-0.1% gelatin gel. […] Where indicated, gels were incubated in 20 mM EDTA to inactivate MMP activity.

[2] = biological target: T1, α2δ1 subunit of the voltage-gated Ca^2+ channel (Homo sapiens, UniProt P54289); conditions: animal studies; Ohashi et al. 2008; cited from earlier work
T1 construct: PD-217,014 produces visceral analgesic effects in animal studies

female rats = conditions: single intra-neural injection into intact sciatic nerve, Liu et al. 2012; cited from earlier work

T1 sequence (P54289 25-1103): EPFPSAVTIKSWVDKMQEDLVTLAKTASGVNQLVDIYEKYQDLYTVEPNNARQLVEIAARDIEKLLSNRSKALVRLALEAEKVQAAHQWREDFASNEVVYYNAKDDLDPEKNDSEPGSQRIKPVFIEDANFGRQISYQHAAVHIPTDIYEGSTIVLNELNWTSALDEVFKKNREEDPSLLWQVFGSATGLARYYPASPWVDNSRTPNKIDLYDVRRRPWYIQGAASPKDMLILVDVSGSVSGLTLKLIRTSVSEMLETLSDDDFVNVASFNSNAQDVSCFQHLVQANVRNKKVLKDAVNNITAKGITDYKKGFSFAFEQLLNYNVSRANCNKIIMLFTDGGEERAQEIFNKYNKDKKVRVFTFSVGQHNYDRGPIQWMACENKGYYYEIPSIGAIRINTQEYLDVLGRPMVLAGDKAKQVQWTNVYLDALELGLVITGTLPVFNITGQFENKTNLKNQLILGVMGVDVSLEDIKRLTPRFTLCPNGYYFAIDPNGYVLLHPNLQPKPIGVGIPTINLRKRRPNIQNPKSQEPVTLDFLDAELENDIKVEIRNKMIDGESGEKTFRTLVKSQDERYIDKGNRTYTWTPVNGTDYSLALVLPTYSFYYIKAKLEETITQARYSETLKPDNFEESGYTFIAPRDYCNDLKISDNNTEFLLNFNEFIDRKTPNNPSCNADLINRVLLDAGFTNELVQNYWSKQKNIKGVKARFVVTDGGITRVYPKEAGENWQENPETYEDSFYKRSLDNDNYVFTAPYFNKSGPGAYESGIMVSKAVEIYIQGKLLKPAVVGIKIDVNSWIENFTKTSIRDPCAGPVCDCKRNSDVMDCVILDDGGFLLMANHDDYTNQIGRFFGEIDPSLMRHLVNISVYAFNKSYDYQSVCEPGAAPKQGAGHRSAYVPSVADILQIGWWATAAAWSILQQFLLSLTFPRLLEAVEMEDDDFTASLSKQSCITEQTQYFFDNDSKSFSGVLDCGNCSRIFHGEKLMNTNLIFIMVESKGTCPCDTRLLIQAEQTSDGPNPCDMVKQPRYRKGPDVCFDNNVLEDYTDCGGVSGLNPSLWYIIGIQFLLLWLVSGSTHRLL
T1 sequence (P54289 957-1103): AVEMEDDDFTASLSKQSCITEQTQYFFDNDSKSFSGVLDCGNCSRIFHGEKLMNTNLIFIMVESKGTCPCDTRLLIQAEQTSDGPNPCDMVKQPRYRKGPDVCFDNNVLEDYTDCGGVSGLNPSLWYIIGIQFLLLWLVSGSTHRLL

O=C(O)CN(CCN(CC(=O)O)CC(=O)O)CC(=O)O [EDTA]
effect on MMP-related gelatinolytic bands [1]: repressed all of the MMP-related gelatinolytic bands

NC[C@@]1(CC(=O)O)C[C@H]2CC[C@H]2C1 [PD-217,014]
visceral analgesic effects, potency and efficacy compared with gabapentin [2]: higher potency and efficacy than gabapentin

ENPVVHFFKNIVTPRTPPPSQ (synthetic wild-type (MBP84-104-WT)) [synthetic algesic myelin basic protein-derived peptide, region 84-104 of human MBP]
mechanical allodynia after injection (female rats): causes a robust and long-lasting mechanical allodynia
